Article PMC3116189, “Novel Natural Inhibitors of CYP1A2 Identified by in Silico and in Vitro Screening” (International Journal of Molecular Sciences, 2011)
Structures can show the parent of a compound that is named as a salt.

These compounds were tested against T1, CYP1A2 (Homo sapiens, UniProt P05177) (assay: in vitro). Details: 1 μM active ingredient, Rh CYP1A2-mediated phenacetin O-deethylation, test dataset of 202 herb ingredients.
T1 sequence (P05177 1-516): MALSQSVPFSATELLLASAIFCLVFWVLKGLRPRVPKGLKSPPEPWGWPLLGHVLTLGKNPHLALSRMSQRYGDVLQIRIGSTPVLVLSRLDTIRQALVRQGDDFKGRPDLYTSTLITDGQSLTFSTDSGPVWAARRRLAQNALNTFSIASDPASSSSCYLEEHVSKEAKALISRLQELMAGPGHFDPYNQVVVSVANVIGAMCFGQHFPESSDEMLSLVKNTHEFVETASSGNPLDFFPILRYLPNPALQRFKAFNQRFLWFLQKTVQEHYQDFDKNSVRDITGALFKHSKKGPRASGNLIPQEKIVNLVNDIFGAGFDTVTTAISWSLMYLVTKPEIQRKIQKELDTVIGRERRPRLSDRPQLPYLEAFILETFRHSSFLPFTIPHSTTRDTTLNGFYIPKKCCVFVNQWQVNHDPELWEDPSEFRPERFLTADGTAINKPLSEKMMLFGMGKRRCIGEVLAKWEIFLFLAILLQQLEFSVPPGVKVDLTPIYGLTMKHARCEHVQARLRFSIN
Assay type: biochemical
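Further: recombinant CYP1A2 incubated for 1 h at 37 °C, with the reaction started by an NADPH-generating system.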

Compound | % of Control Indication Activity (Mean)
C/C=C(/C)C(=O)O[C@H]1[C@@H](OC(C)=O)c2c(ccc3ccc(=O)oc23)OC1(C)C [Praeruptorin A] | > 90%
COc1cc(-c2oc3cc(O)cc(O)c3c(=O)c2O[C@@H]2O[C@H](CO[C@@H]3O[C@@H](C)[C@H](O)[C@@H](O)[C@H]3O)[C@@H](O)[C@H](O)[C@H]2O[C@@H]2O[C@@H](C)[C@H](O)[C@@H](O)[C@H]2O)ccc1O [Typhaneoside] | > 90%
Pinoresinol diglucoside | > 90%
COc1cc2c(c(OC)c1OC)-c1c(cc(OC)c(OC)c1OC)C[C@H](C)[C@H](C)C2 [Deoxyschizandrin] | > 90%
C[C@@H]1O[C@@H](O[C@@H]2[C@@H](O)[C@H](O)[C@@H](CO)O[C@H]2c2c(O)cc(O)c3c(=O)cc(-c4ccc(O)cc4)oc23)[C@H](O)[C@H](O)[C@H]1O [Vitexin rhamnoside] | > 90%
COC[C@]12CN(C)[C@@H]3[C@@H]4[C@H](OC)[C@H]1[C@@]3([C@@H](OC)C[C@H]2O)[C@@H]1C[C@@]2(O)[C@H](OC(=O)c3ccccc3)[C@@H]1[C@]4(OC(C)=O)[C@@H](O)[C@@H]2OC [Mesaconitine] | > 90%
O=C1CCC[C@@H]2[C@H]3CCC[N@+]4([O-])CCC[C@@H](CN12)[C@@H]34 [Ammothamnine] | > 90%
Cc1c(O)c(C)c2oc(-c3ccc(O)cc3)cc(=O)c2c1O [Syzalterin] | > 90%
COc1c2c(cc3oc(C)cc(=O)c13)OC(C(C)(C)O[C@@H]1O[C@H](CO)[C@@H](O)[C@H](O)[C@H]1O)C2 (stereo partly drawn) [5-O-Methylvisammioside] | > 90%
COc1cc(O)cc(O)c1C(=O)/C=C/c1ccccc1 [Cardamonin] | > 90%

Same assay, conditions: human, recombinant enzyme, pH 7.4

Compound | activity at 1 h, 1 μM
O=c1cc(-c2ccccc2)oc2cc(O)cc(O)c12 [Chrysin] | 4.6%
COc1ccc2ccc(=O)oc2c1CC=C(C)C [Osthole] | 86.8%
O=C(O)c1cc(O)c(O)c(O)c1 [Gallic acid] | > 90%
O=Cc1ccc(O)c(O)c1 [3,4-Dihydroxybenzaldehyde] | > 90%
CN1CCc2cc3c(cc2C(=O)Cc2ccc4c(c2C1)OCO4)OCO3 [Protopine] | > 90%
C[C@@H]1O[C@@H](Oc2c(-c3ccc(O)cc3)oc3cc(O)cc(O)c3c2=O)[C@H](O)[C@H](O)[C@H]1O [zhang 911, Kaempferol-3-O-α-L-rhamnopyranoside] | > 90%
COc1cc(O)c2c(=O)cc(-c3ccc(O)c(O)c3)oc2c1 [zhang 272, 3′-hydroxy-Genkwanin] | < 90%
O=c1c(O[C@@H]2O[C@H](CO)[C@H](O)[C@H](O)[C@H]2O)c(-c2ccc(O)c(O)c2)oc2cc(O)cc(O)c12 [Hyperoside] | > 90%
COC(=O)c1c2c(c3ccccc3c1O)OC(C)(C)C=C2 [Mollugin] | > 90%
O=C1c2cccc(O)c2C(=O)c2c(O)cc(CO)cc21 [Aloe-emodin] | > 90%

Same assay, conditions: human, recombinant enzyme, pH 7.4; 1 μM active ingredient, Rh CYP1A2-mediated phenacetin O-deethylation, test dataset of 202 herb ingredients; read-out: % of Control Indication Activity (Mean)

Compound | activity at 1 h, 1 μM
COc1ccc2cc1Oc1ccc(cc1)C[C@H]1c3cc(c(OC)cc3CCN1C)Oc1c(O)c(OC)cc3c1[C@H](C2)N(C)CC3 [Fangchinoline] | > 90%

Same assay, conditions: human, recombinant human CYP1A2, pH 7.4, probe phenacetin (25 μM), O-deethylation to acetaminophen; 1 μM active ingredient, Rh CYP1A2-mediated phenacetin O-deethylation, test dataset of 202 herb ingredients; read-out: % of Control Indication Activity (Mean)

Compound | activity at 1 h, 1 μM
O=c1c(O)c(-c2ccc(O)c(O)c2)oc2cc(O)cc(O)c12 [Quercetin] | > 90%
C=C1CC[C@@H]2[C@](C)(CO)[C@H](O)CC[C@@]2(C)[C@@H]1C/C=C1/C(=O)OC[C@H]1O [Andrographolide] | > 90%
Cc1ccc(C(C)C)cc1O [Carvacrol] | > 90%
COc1cc(O)c2c(c1)C(=O)c1cc(C)cc(O)c1C2=O [Physcion] | > 90%
O=C(O)c1ccc(O)c(O)c1 [Protocatechuic acid] | > 90%
O=C1/C(=C2\Nc3ccccc3C2=O)Nc2ccccc21 [Indigo] | > 90%
OC[C@H]1O[C@@H](Oc2cc(O)cc(/C=C/c3ccc(O)cc3)c2)[C@H](O)[C@@H](O)[C@@H]1O [Polydatin] | > 90%
COc1cc2ccc(=O)oc2c(O)c1O [Fraxetin] | > 90%
COc1c(O[C@@H]2O[C@H](CO)[C@@H](O)[C@H](O)[C@H]2O)cc2occ(-c3ccc(O)cc3)c(=O)c2c1O [Tectoridin] | > 90%
COc1ccc(C[C@H]2COC(=O)[C@@H]2Cc2ccc(O[C@@H]3O[C@H](CO)[C@@H](O)[C@H](O)[C@H]3O)c(OC)c2)cc1OC [Arctiin] | > 90%
O=Cc1ccc(CO)o1 [5-Hydroxymethylfurfural] | > 90%
COc1c2ccc(-c3ccccc3)oc-2cc(=O)c1C [Dracorhodin] | 21.1%
CC1(C)CC[C@]2(C(=O)O)CC[C@]3(C)C(=CC[C@@H]4[C@@]5(C)CC[C@H](O)[C@@](C)(CO)[C@@H]5CC[C@]43C)[C@@H]2C1 [Hederagenin] | > 90%
Cc1ccc(C(C)C)c(O)c1 [Thymol] | > 90%
O=c1c(-c2ccc(O[C@@H]3O[C@H](CO)[C@@H](O)[C@H](O)[C@H]3O)cc2)coc2cc(O)cc(O)c12 [Sophoricoside] | > 90%

Same assay, conditions: recombinant enzyme, pH 7.4

Compound | activity
CN1[C@@H]2CC[C@H]1C[C@@H](OC(=O)C(CO)c1ccccc1)C2 (stereo partly drawn) [Atropine Sulfate] | > 90%

Same assay, conditions: recombinant enzyme, pH 7.4; 1 μM active ingredient, Rh CYP1A2-mediated phenacetin O-deethylation, test dataset of 202 herb ingredients; read-out: % of Control Indication Activity (Mean)

Compound | activity | activity at 1 h, 1 μM
COC[C@@]12CC[C@H](OC)[C@]34C(C([C@H](OC)[C@H]13)[C@]1(OC(C)=O)[C@H]3[C@@H](OC(=O)c5ccccc5)[C@](O)(C[C@H]34)[C@@H](OC)[C@@H]1O)N(C)C2 [Hypaconitine] | > 90% | –
CCCCCCCCCC(C)=O [Methyl nonylketone] | > 90% | –
CCN1C[C@]2(COC)[C@H](O)C[C@H](OC)[C@@]34[C@@H]5C[C@@]6(O)[C@H](OC(=O)c7ccccc7)[C@@H]5[C@@](OC(C)=O)([C@@H]([C@H](OC)[C@H]23)[C@@H]14)[C@@H](O)[C@@H]6OC [Aconitine] | – | > 90%
C[C@]12CC[C@H](O)C[C@H]1CC[C@@H]1[C@@H]2CC[C@]2(C)[C@@H](c3ccc(=O)oc3)C[C@H]3O[C@]132 [Resibufogenin] | – | > 90%
O=c1ccc2ccc3occc3c2o1 [Isopsoralen] | – | > 90%
C[C@@H]1O[C@@H](Oc2c(-c3ccc(O)c(O)c3)oc3cc(O)cc(O)c3c2=O)[C@H](O)[C@H](O)[C@H]1O [Quercitrin] | > 90% | –
c1cc2c(cc1[C@H]1OC[C@H]3[C@@H]1CO[C@@H]3c1ccc3c(c1)OCO3)OCO2 [Sesamin] | > 90% | –
CC1=C2C[C@H]3[C@@H](CC=C4C[C@@H](O)CC[C@@]43C)[C@@H]2CC[C@]12O[C@@H]1C[C@H](C)CN[C@H]1[C@H]2C [Cyclopamine] | – | > 90%
COC(=O)C1=CO[C@@H](O[C@@H]2O[C@H](CO)[C@@H](O)[C@H](O)[C@H]2O)[C@@H]2C(CO)=CC[C@H]12 [Geniposide] | > 90% | –
COc1ccc(C=O)cc1 [Anisaldehyde] | > 90% | –
OCc1ccc(O[C@@H]2O[C@H](CO)[C@@H](O)[C@H](O)[C@H]2O)cc1 [Gastrodin] | > 90% | –
C[C@@]12C(=O)OC(=O)[C@]1(C)[C@H]1CC[C@@H]2O1 [Cantharidin] | – | > 90%
COc1cc(-c2oc3cc(O)cc(O)c3c(=O)c2O)ccc1O [Isorhamnetin] | > 90% | –
C=CCc1ccc(O)c(-c2cc(CC=C)ccc2O)c1 [Magnolol] | > 90% | –
